# Reference: patent US20080102042A1, “Oral Composition” (KYOWA HAKKO KOGYO CO., LTD., priority 2004, published 2008)
# Experiments:
# alveolar pyorrhea = assay: Test Example 2: injection into the periodontal pocket of a patient with alveolar pyorrhea (big periodontal pocket, loose tooth), then continued toothbrushing; assay type: in vivo, human
# Description: This treatment was carried out after toothbrushing three times a day for two weeks. […] Thereafter, toothbrusing was continuously carried out using a very fine toothbrush with buffered saline (pH 7.0) containing 2.5% by weight of N-acetylhydroxyproline on it with massage of the gingiva and the inside of the periodontal pocket. This toothbrusing was carried out for more than three minutes three times a day.
# [1] = test system: advanced alveolar pyorrhea; assay: Test Example 1: injection into the periodontal pocket of a patient with advanced alveolar pyorrhea, with gingival massage; assay type: in vivo, human; conditions: buffered saline (pH 7.0) containing 2.5% by weight, 0.8 ml into periodontal pocket, gingiva massaged, twice a day for two weeks; one patient
# Description: Buffered saline (pH 7.0) containing 2.5% by weight of N-acetylhydroxyproline (0.8 ml) was injected into the periodontal pocket of a patient with advanced alveolar pyorrhea and the gingiva was lightly massaged.
# [2] = buffered saline (pH 7.0) containing 2.5% by weight, 0.8 ml into periodontal pocket, after toothbrushing three times a day for two weeks, one patient
compound,measurement,setting,value
"CC(=O)N1C[C@H](O)C[C@H]1C(=O)O [N-acetylhydroxyproline, N-acetyl-trans-4-hydroxy-L-proline]",looseness of the tooth,alveolar pyorrhea; [2],remarkably improved
same,pain of alveolar pyorrhea,alveolar pyorrhea; [2],completely disappeared
same,healthy state without pain or looseness of tooth (prevention of recurrence),"alveolar pyorrhea; thereafter continued toothbrushing with buffered saline (pH 7.0) containing 2.5% by weight, more than three minutes three times a day",could be maintained
same,symptoms of alveolar pyorrhea,[1],remarkably improved
